How the values were obtained:
ARPE-19 cell line = assay: Gene expression profiling (U133A2.0 microarrays) of drug-treated ARPE-19 cells; antipsychotic signature of lipid homeostasis genes; type: cell-based, human; settings: ARPE-19, 10 μM, 24 hrs; for up-regulation of the top 20 probe sets of the antipsychotic group profile: FIG. 3
Text: The retinal pigment epithelia cell line, ARPE-19/HPV-16, was chosen to establish a database of drug profiles because it is from non-cancerous human origin, with a normal karyotype, and can easily be grown as monolayer in 96-well plates. H4 is a hypertriploid cell line from glioblastoma origin, which was used only for independent replication. Cell lines were propagated according to supplier's specifications (ATCC Manassas, Va.). Compounds were obtained from Sigma (St. Louis, Mo.) or Vanda Pharmaceuticals (Rockville, Md.). Cells were aliquoted to 96-well plates (˜2×10e5 cells/well) and incubated for 24 hrs prior to providing fresh media with a drug, or the drug vehicle (water, dimethyl sulfoxide, ethanol, methanol, or phosphate-buffered saline solution). Drugs were diluted 1000 fold in buffered Advanced D-MEM/F-12 culture medium (Invitrogen, Carlsbad, Calif.) containing non-essential amino acids and 110 mg/L sodium pyruvate. In these conditions, no significant changes of pH were expected, which was confirmed by the monitoring of the pH indicator present in the medium. A final 10 μM drug concentration was chosen because it is believed to fit in the range of physiological relevance, and has been used in other cell line studies (Ferro et al. 2006; Lamb et al. 2006). Microscopic inspection of each well was conducted at the end of the treatment to discard any instance where cells had morphological changes consistent with apoptosis, and to verify that the drug had not precipitated in the culture medium.
Cells were harvested 24 hrs after treatment and RNA extracted using the RNeasy 96 protocol (Qiagen, Valencia, Calif.). Gene expression for 22,238 probe sets of 12,490 genes was generated with U133A2.0 microarrays following the manufacture's instructions (Affymetrix, Santa Clara, Calif.). Antipsychotics were profiled in duplicate or triplicate, with multiple vehicle controls on each plate. A total of 708 microarrays were analysed including 74 for the 18 antipsychotics, 499 for the other 448 compounds, and 135 for vehicle controls.
Each drug treatment-vehicle control pair (treatment instance) was represented by a non-parametric rank-ordered list constructed as follows, similarly to the method described by Lamb and colleagues (Lamb et al. 2006). The raw scan data were first converted to average difference values using MAS 5.0 (Affymetrix). The average difference values of both treatment and control data were set to a minimum threshold of 50 if below 50. For each treatment instance, all probe sets were then ranked based on their amplitude, or level of expression relative to the vehicle control (or average of controls when more than one was used). Amplitude was defined as the ratio of expression (t−v)/[(t+v)/2] where t corresponds to treatment instance and v to vehicle instance.
Each drug group profile was created using our novel Weighted Influence Model, Rank of Ranks (WIMRR) method which underscores the rank of each probe set across the entire gene expression profile rather than the specific change in expression level. WIMRR takes the average rank of each probe set across all of the members of the group and then re-ranks the probe sets from smallest average rank to largest average rank.
A gene-set enrichment metric based on the Kolmogorov-Smirnov (KS) statistic was used in a similar fashion by Lamb and colleagues (Lamb et al. 2006). Specifically, for a given set of probes, the KS score gives a measure of how up (positive) or down (negative) the set of probes occurs within the profile of another treatment instance.

[1] = 2-3 weeks of antipsychotic treatment, schizophrenic patients; cited from earlier work
[2] = test system: Saccharomyces cerevisiae heterozygotes; settings: cited from earlier work
mouse striatum = settings: cited from earlier work
[3] = women affected with schizophrenia; cited from earlier work
[4] = patients; cited from earlier work
[5] = patients with bipolar disorder; cited from earlier work
[6] = rats; cited from earlier work

CCc1c(C)[nH]c2c1C(=O)C(CN1CCOCC1)CC2 (centres unmarked) [Molindone]
up-regulation of the top 20 probe sets of the antipsychotic group profile (ARPE-19 cell line): lowest effect

O=C1CCc2ccc(OCCCCN3CCN(c4cccc(Cl)c4Cl)CC3)cc2N1 [aripiprazole]
plasma levels of certain lipid classes (PE, PC, TG, LY) [1]: minimal effect

CN(C)CCCN1c2ccccc2Sc2ccc(Cl)cc21 [chlorpromazine]
effect on genes involved in yeast fatty acid biosynthesis, sterol biosynthesis or phospholipid transport [2]: strong effect

CCN(CC)CCOc1ccc(C(=C(Cl)c2ccccc2)c2ccccc2)cc1 [clomiphene]
effect on lipid homeostasis (gene expression signature) (ARPE-19 cell line): alter lipid homeostasis

OCCN1CCN(CCCN2c3ccccc3Sc3ccc(C(F)(F)F)cc32)CC1 [fluphenazine]
up-regulation of the top 20 probe sets of the antipsychotic group profile (ARPE-19 cell line): stronger up-regulation

O=C(CCCN1CCC(O)(c2ccc(Cl)cc2)CC1)c1ccc(F)cc1 [haloperidol]
effect on genes involved in yeast fatty acid biosynthesis, sterol biosynthesis or phospholipid transport [2]: strong effect
differential expression of genes involved in lipid metabolism (mouse striatum): differential expression of genes involved in lipid metabolism

COc1cc(C(C)=O)ccc1OCCCN1CCC(c2noc3cc(F)ccc23)CC1 [iloperidone]
up-regulation of the top 20 probe sets of the antipsychotic group profile (ARPE-19 cell line): stronger up-regulation

CN1CCCCC1CCN1c2ccccc2Sc2ccc([S+](C)[O-])cc21 (centres unmarked) [mesoridazine]
up-regulation of the top 20 probe sets of the antipsychotic group profile (ARPE-19 cell line): lowest effect

C[C@]12CC[C@@H]3c4ccc(O)cc4CC[C@H]3[C@@H]1CC[C@@H]2O [oestradiol]
symptoms of psychosis and cognitive functioning [3]: improve

Cc1cc2c(s1)Nc1ccccc1N=C2N1CCN(C)CC1 [olanzapine]
risk for weight gain and hyperlipidemia [4]: significant increased risk

OCCN1CCN(CCCN2c3ccccc3Sc3ccc(Cl)cc32)CC1 [perphenazine]
up-regulation of the top 20 probe sets of the antipsychotic group profile (ARPE-19 cell line): stronger up-regulation

O=C(c1ccc(OCCN2CCCCC2)cc1)c1c(-c2ccc(O)cc2)sc2cc(O)ccc12 [raloxifene]
effect on lipid homeostasis (gene expression signature) (ARPE-19 cell line): alter lipid homeostasis

Cc1nc2n(c(=O)c1CCN1CCC(c3noc4cc(F)ccc34)CC1)CCCC2 [risperidone]
plasma levels of certain lipid classes (PE, PC, TG, LY) [1]: significant increases
effect on lipid homeostasis (gene expression signature) (ARPE-19 cell line): share a common gene expression signature
over-expression of RNAs for the desaturase genes FADS1 and FADS2 (ARPE-19 cell line): over-expression
risk for weight gain and hyperlipidemia [4]: much lower risk

CC/C(=C(\c1ccccc1)c1ccc(OCCN(C)C)cc1)c1ccccc1 [tamoxifen]
mania symptoms [5]: reduce mania symptoms
effect on lipid homeostasis (gene expression signature) (ARPE-19 cell line): alter lipid homeostasis
obesity induced by the antipsychotic sulpiride [6]: prevent obesity

CN1CCN(CCCN2c3ccccc3Sc3ccc(C(F)(F)F)cc32)CC1 [trifluoperazine]
effect on genes involved in yeast fatty acid biosynthesis, sterol biosynthesis or phospholipid transport [2]: strong effect

O=C1Cc2cc(CCN3CCN(c4nsc5ccccc45)CC3)c(Cl)cc2N1 [ziprasidone]
effect on lipid homeostasis (gene expression signature) (ARPE-19 cell line): share a common gene expression signature
risk for weight gain and hyperlipidemia [4]: much lower risk

Source: patent US20110118313A1, “IDENTIFICATION OF A MOLECULAR SIGNATURE FOR ANTIPSYCHOTICS AND SERMS” (priority 2008, published 2011)
